Data on seven molecules can be found in PubChem BioAssay (NCI).

Among the test systems are CCRF-CEM leukemia; NCI-H226 lung; MALME-3M melanoma; SNB-75 CNS; UO-31 renal; U251 CNS; MOLT-4 leukemia; HCT-15 colon; ACHN renal; SK-MEL-5 melanoma.
What all share (assay): inhibition of tumour cell growth, NCI panel, 48 h

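These data come from cells grown in 96-well plates and exposed to compound for 48 hours at five concentrations. The concentration for 50% growth inhibition is given as GI50. The concentration for full growth arrest is given as TGI.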 A value given as a limit tells only on which side of the number the result lay.

Take `C=C(C)[C@@H]1CC[C@]2(c3ncc(C)o3)CC[C@]3(C)[C@H](CC[C@@H]4[C@@](C)(CCC#N)[C@H](C(=C)C)CC[C@]43C)[C@@H]12`: the GI50 in the test with CCRF-CEM leukemia is 2.93 µM; in the test with NCI-H226 lung, 3.28 µM; with MALME-3M melanoma it was 2.65 µM; with SNB-75 CNS, 2.44 µM; with UO-31 renal, 2.4 µM; in the test on U251 CNS, 3.54 µM. Further, the GI50 in the test with MOLT-4 leukemia is 2.85 µM; in the test with HCT-15 colon, 3.94 µM; with ACHN renal, 4.65 µM; with SK-MEL-5 melanoma, 3.65 µM. For the same molecule, the TGI with CCRF-CEM leukemia stood at 10.2 µM; in the test on NCI-H226 lung it was 14.5 µM; with MALME-3M melanoma it was 9.75 µM; in the test with SNB-75 CNS, 16.6 µM; in the test with UO-31 renal, 14.8 µM; in the test with U251 CNS it was 13.6 µM. The TGI was determined as 9.82 µM with MOLT-4 leukemia, 17.1 µM in the test with HCT-15 colon, 17.2 µM with ACHN renal and 13.7 µM in the test with SK-MEL-5 melanoma.

Take `COc1ccc(-n2nc(C)c3c(Nc4ccc(NC(=O)Nc5cc(C(F)(F)F)ccc5F)cc4)ncnc32)cc1`: the GI50 in the test on CCRF-CEM leukemia was 2.94 µM; with NCI-H226 lung it was 2.34 µM; in the test on MALME-3M melanoma, 1.76 µM; in the test on SNB-75 CNS it was 1.21 µM; with UO-31 renal, 1.79 µM; in the test on U251 CNS, 1.77 µM. The GI50 in the test on MOLT-4 leukemia was 2.69 µM; with HCT-15 colon, 2.3 µM; with ACHN renal, 2.92 µM; in the test on SK-MEL-5 melanoma, 1.91 µM. Besides, the TGI in the test with CCRF-CEM leukemia was more than 100 µM; in the test with NCI-H226 lung, 7.23 µM; in the test on MALME-3M melanoma, 4.06 µM; with SNB-75 CNS it was 7.84 µM; in the test with UO-31 renal it was 7.04 µM; in the test on U251 CNS it was 4.03 µM. The TGI in the test on MOLT-4 leukemia turned out to be 12.1 µM; in the test with HCT-15 colon, 6.31 µM; with ACHN renal, 42.9 µM; in the test with SK-MEL-5 melanoma, 3.73 µM.

Turning to `CC[O+]=c1cccc2ssnc1-2`, the TGI in the test on CCRF-CEM leukemia is more than 100 µM; in the test on NCI-H226 lung, more than 100 µM; in the test with MALME-3M melanoma, more than 100 µM; in the test with SNB-75 CNS it was 72.5 µM; with UO-31 renal, more than 100 µM; in the test with U251 CNS, more than 100 µM. Besides, the TGI in the test with MOLT-4 leukemia, in the test on HCT-15 colon, in the test with ACHN renal and in the test on SK-MEL-5 melanoma was more than 100 µM in each case.

As to `CCOc1ccc2c(-c3ccnc(Nc4cccc(C(F)(F)F)c4)n3)cnn2n1`, the GI50 was more than 25 µM with CCRF-CEM leukemia; more than 25 µM in the test with NCI-H226 lung; more than 25 µM in the test on MALME-3M melanoma; 9.81 µM in the test with SNB-75 CNS; more than 25 µM in the test on UO-31 renal; 6.43 µM in the test with U251 CNS. Besides, the GI50 in the test on MOLT-4 leukemia was more than 25 µM; in the test with HCT-15 colon it was more than 23.8 µM; in the test on ACHN renal, 16.3 µM; in the test on SK-MEL-5 melanoma, more than 25 µM. The TGI was more than 25 µM in the test on CCRF-CEM leukemia; more than 25 µM in the test on NCI-H226 lung; more than 25 µM with MALME-3M melanoma; more than 25 µM with SNB-75 CNS; more than 25 µM in the test with UO-31 renal; more than 22.5 µM in the test on U251 CNS. Further, the TGI with MOLT-4 leukemia, in the test on HCT-15 colon, in the test on ACHN renal and in the test with SK-MEL-5 melanoma was more than 25 µM throughout.

Regarding `CNC1=C(Br)C(=O)C2=C(C1=O)C1C3=C(C(=O)C=CC3=O)C2c2ccccc21` (centres undefined), the GI50 in the test on CCRF-CEM leukemia was 0.472 µM; with NCI-H226 lung, 5.19 µM; in the test with MALME-3M melanoma, 6.96 µM; in the test on SNB-75 CNS, 3.88 µM; in the test with UO-31 renal, 6.73 µM; in the test with U251 CNS, 2.12 µM. Also, the GI50 in the test on MOLT-4 leukemia was 0.473 µM; in the test on HCT-15 colon, 2.19 µM; with ACHN renal, 2.1 µM; with SK-MEL-5 melanoma, 5.52 µM. The TGI in the test with CCRF-CEM leukemia is more than 100 µM; in the test with NCI-H226 lung, 14.4 µM; with MALME-3M melanoma it was 16.2 µM; in the test on SNB-75 CNS, 24.5 µM; in the test with UO-31 renal it was 14.4 µM; in the test on U251 CNS, 5.01 µM. Besides, the TGI was determined as 5.55 µM in the test on HCT-15 colon, 3.9 µM in the test with ACHN renal and 18.6 µM in the test with SK-MEL-5 melanoma.

Regarding `c1ccc(CN2CCC3(CC2)ONC2=NCCN23)cc1`, the GI50 was 31 µM with CCRF-CEM leukemia; 86.8 µM in the test on NCI-H226 lung; more than 100 µM with MALME-3M melanoma; more than 100 µM with SNB-75 CNS; 22.3 µM in the test on UO-31 renal; 60.1 µM in the test on U251 CNS. In addition, the GI50 in the test on MOLT-4 leukemia was 47.3 µM; in the test on HCT-15 colon, 46.8 µM; in the test with ACHN renal it was 49.7 µM; in the test on SK-MEL-5 melanoma, 72 µM. Also, the TGI in the test with CCRF-CEM leukemia, with NCI-H226 lung, with MALME-3M melanoma, with SNB-75 CNS, in the test with UO-31 renal and with U251 CNS was more than 100 µM in each case. Further, the TGI in the test on MOLT-4 leukemia, with HCT-15 colon, in the test with ACHN renal and with SK-MEL-5 melanoma was more than 100 µM in each case.

Consider `COc1ccc(S(=O)(=O)N2CCCCC2)cc1NC(=O)c1[nH]c(C)c2c1CCCCC2=O`, for which the GI50 is 3.14 µM in the test with CCRF-CEM leukemia; 1.27 µM in the test with NCI-H226 lung; 1.76 µM in the test with MALME-3M melanoma; 0.141 µM in the test with SNB-75 CNS; 0.379 µM in the test on UO-31 renal; 2.29 µM in the test with U251 CNS. The GI50 is 4.31 µM with MOLT-4 leukemia, 1.15 µM in the test with HCT-15 colon, 2.34 µM with ACHN renal and 1.4 µM in the test with SK-MEL-5 melanoma. Further, the TGI with CCRF-CEM leukemia is more than 100 µM; in the test with NCI-H226 lung it was 34.7 µM; in the test on MALME-3M melanoma it was 93.8 µM; with SNB-75 CNS, 3.46 µM; in the test with UO-31 renal it was 40.7 µM; in the test with U251 CNS, 70.4 µM. In addition, the TGI with MOLT-4 leukemia is more than 100 µM; in the test with HCT-15 colon it was more than 100 µM; in the test on ACHN renal it was more than 100 µM; with SK-MEL-5 melanoma it was 3.88 µM.
